Data: patent US20080176862A1, “New Compounds 617” (ASTRAZENECA AB, priority 2006, published 2008)
Structures can show the parent of a compound that is named as a salt.

The compounds below were run against T1, human β-Secretase (soluble part, AA1-AA460; sBACE-Fc) (Homo sapiens, UniProt P56817) (assay: TR-FRET assay). Conditions: substrate (Europium)CEVNLDAEFK(Qsy7) 100 nM, pH 4.5, 15 min at RT; read-out: IC50 (nM) in TR-FRET assay.
T1 construct: The soluble part of the human β-Secretase (AA1-AA460) was cloned into the ASP2-Fc10-1-IRES-GFP-neoK mammalian expression vector; made in house
T1 sequence (P56817 22-460): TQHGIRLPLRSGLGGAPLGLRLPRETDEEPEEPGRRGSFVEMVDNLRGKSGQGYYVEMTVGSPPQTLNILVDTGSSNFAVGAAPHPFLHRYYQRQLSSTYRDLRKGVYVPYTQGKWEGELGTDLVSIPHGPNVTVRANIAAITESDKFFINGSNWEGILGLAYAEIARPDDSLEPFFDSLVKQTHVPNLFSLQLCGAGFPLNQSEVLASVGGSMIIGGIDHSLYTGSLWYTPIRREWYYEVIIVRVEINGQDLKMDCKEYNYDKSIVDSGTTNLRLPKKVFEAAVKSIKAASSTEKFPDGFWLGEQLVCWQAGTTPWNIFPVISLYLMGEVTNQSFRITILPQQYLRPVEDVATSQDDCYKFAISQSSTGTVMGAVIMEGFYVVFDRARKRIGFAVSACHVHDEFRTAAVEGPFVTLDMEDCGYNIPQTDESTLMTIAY
Type: biochemical
Protocol: The enzyme used in the IGEN Cleavage-, Fluorescent-, TR-FRET- and BiaCore assays is described as follows:
The soluble part of the human β-Secretase (AA1-AA460) was cloned into the ASP2-Fc10-1-IRES-GFP-neoK mammalian expression vector. The gene was fused to the Fc domain of IgG1 (affinity tag) and stably cloned into HEK 293 cells. Purified sBACE-Fc is stored in Tris buffer, pH 9.2 and has a purity of 95%.
Enzyme was diluted to 6 μg/mL and the substrate (Europium)[…](Qsy7) to 200 nM in reaction buffer (NaAcetate, chaps, triton x-100, EDTA pH 4.5). Compounds were diluted to the desired concentration in dimethyl sulfoxide (final dimethyl sulfoxide concentration in assay is 5%). […] Enzyme (9 μL) and 1 μL of compound in dimethyl sulfoxide was added to the plate, mixed and pre-incubated for 10 min. Substrate (10 μL) was added and the reaction proceeded in the dark for 15 min at RT. The reaction was stopped with the addition of 7 μL NaAcetate, pH 9. The fluorescence of the product was measured on a Victor II plate reader with an excitation wavelength of 340 nm and an emission wavelength of 615 nm. […] The dimethyl sulfoxide control defined the 100% activity level and 0% activity was defined by exclusion of the enzyme (using reaction buffer instead).
For CN1C(=O)C(c2cccc(OS(C)(=O)=O)c2)(c2ccc(F)c(-c3cccc(Cl)c3)c2)N=C1N (stereo not shown) [Example 91, 3-[2-Amino-4-(3′-chloro-6-fluorobiphenyl-3-yl)-1-methyl-5-oxo-4,5-dihydro-1H-imidazol-4-yl]phenyl methanesulfonate], the IC50 was 228 nM.
Work on CN1C(=O)C(c2ccc(OS(C)(=O)=O)cc2)(c2ccc(F)c(CCC3CC3)c2)N=C1N (stereo not shown) [Example 79, 4-{2-Amino-4-[3-(2-cyclopropylethyl)-4-fluorophenyl]-1-methyl-5-oxo-4,5-dihydro-1H-imidazol-4-yl}phenyl methanesulfonate] yielded an IC50 of 552 nM.
In the case of CCCS(=O)(=O)Oc1cccc(C2(c3ccc(F)c(-c4cccc(Cl)c4)c3)N=C(N)N(C)C2=O)c1 (stereo not shown) [Example 98, 3-[2-Amino-4-(3′-chloro-6-fluorobiphenyl-3-yl)-1-methyl-5-oxo-4,5-dihydro-1H-imidazol-4-yl]phenyl propane-1-sulfonate], the IC50 is reported as 239 nM.
With CN1C(=O)C(c2cccc(OS(C)(=O)=O)c2)(c2ccc(F)c(-c3cccnc3)c2)N=C1N (stereo not shown) [Example 90, 3-[2-Amino-4-(4-fluoro-3-pyridin-3-ylphenyl)-1-methyl-5-oxo-4,5-dihydro-1H-imidazol-4-yl]phenylmethanesulfonate] the IC50 was 385 nM.
Compound COc1ccc(C2(c3cccc(-c4cc(Cl)cc(OS(C)(=O)=O)c4)c3)N=C(N)N(C)C2=O)cc1C(F)(F)F (stereo not shown) [Example 61, 3′-{2-Amino-4-[4-methoxy-3-(trifluoromethyl)phenyl]-1-methyl-5-oxo-4,5-dihydro-1H-imidazol-4-yl}-5-chlorobiphenyl-3-ylmethanesulfonate] has an IC50 of 37 nM.
Compound Cc1cc(C2(c3cccc(-c4cc(Cl)cc(OS(C)(=O)=O)c4)c3)N=C(N)N(C)C2=O)cc(C)n1 (stereo not shown) [Example 306, 3′-(2-Amino-4-(2,6-dimethylpyridin-4-yl)-1-methyl-5-oxo-4,5-dihydro-1H-imidazo-4-yl)-5-chlorobiphenyl-3-yl methanesulfonate hydrochloride] has an IC50 of 89 nM.
CN1C(=O)C(c2cccc(OS(=O)(=O)c3ccc(Cl)s3)c2)(c2ccc(F)c(-c3cncnc3)c2)N=C1N (stereo not shown) [Example 242, 3-[2-Amino-4-(4-fluoro-3-pyrimidin-5-ylphenyl)-1-methyl-5-oxo-4,5-dihydro-1H-imidazol-4-yl]phenyl-5-chlorothiophene-2-sulfonate] gave an IC50 of 31 nM.
With CN1C(=O)C(c2ccc(OS(=O)(=O)C(F)(F)F)cc2)(c2ccc(F)c(-c3cccnc3)c2)N=C1N (stereo not shown) [Example 141, 4-[2-Amino-4-(4-fluoro-3-pyridin-3-ylphenyl)-1-methyl-5-oxo-4,5-dihydro-1H-imidazol-4-yl]phenyl trifluoromethanesulfonate 0.5 acetate] the IC50 was 107 nM.
COc1cc(C#N)cc(-c2cc(C3(c4ccc(OS(C)(=O)=O)cc4)N=C(N)N(C)C3=O)ccc2F)c1 (stereo not shown) [Example 71, 4-[2-Amino-4-(3′-cyano-6-fluoro-5′-methoxybiphenyl-3-yl)-1-methyl-5-oxo-4,5-dihydro-1H-imidazol-4-yl]phenyl methanesulfonate hydrochloride] gave an IC50 of 41 nM.
In the case of CN1C(=O)C(c2ccc(OC(F)F)cc2)(c2cccc(-c3cc(Cl)cc(OS(C)(=O)=O)c3)c2)N=C1N (stereo not shown) [Example 64, 3′-{2-Amino-4-[4-(difluoromethoxy)phenyl]-1-methyl-5-oxo-4,5-dihydro-1H-imidazol-4-yl}-5-chlorobiphenyl-3-ylmethanesulfonate], the IC50 is reported as 28 nM.
In the case of CC(C)S(=O)(=O)Oc1cccc(C2(c3ccc(F)c(-c4cc(Cl)cc(Cl)c4)c3)N=C(N)N(C)C2=O)c1 (stereo not shown) [Example 109, 3-[2-Amino-4-(3′,5′-dichloro-6-fluorobiphenyl-3-yl)-1-methyl-5-oxo-4,5-dihydro-1H-imidazol-4-yl]phenyl propane-2-sulfonate], the IC50 is reported as 263 nM.
CN1C(=O)C(c2cccc(OS(C)(=O)=O)c2)(c2ccc(F)c(-c3cncnc3)c2)N=C1N (stereo not shown) [Example 94, 3-[2-Amino-4-(4-fluoro-3-pyrimidin-5-ylphenyl)-1-methyl-5-oxo-4,5-dihydro-1H-imidazol-4-yl]phenyl methanesulfonate] gave an IC50 of 472 nM.
For CN1C(=O)C(c2ccc(OS(=O)(=O)c3c(Cl)nc4sccn34)cc2)(c2ccc(F)c(-c3cccnc3)c2)N=C1N (stereo not shown) [Example 286], the IC50 was 68 nM.
CN1C(=O)C(c2cccc(OS(C)(=O)=O)c2)(c2ccc(F)c(-c3cccnc3F)c2)N=C1N (stereo not shown) [Example 88, 3-{2-Amino-4-[4-fluoro-3-(2-fluoropyridin-3-yl)phenyl]-1-methyl-5-oxo-4,5-dihydro-1H-imidazol-4-yl}phenylmethanesulfonate] was tested, and the IC50 was 234 nM.
Work on CN1C(=O)C(c2cccc(OS(=O)(=O)N(C)C)c2)(c2ccc(F)c(-c3cccnc3)c2)N=C1N (stereo not shown) [Example 111, 3-[2-Amino-4-(4-fluoro-3-pyridin-3-ylphenyl)-1-methyl-5-oxo-4,5-dihydro-1H-imidazol-4-yl]phenyldimethylsulfamate] yielded an IC50 of 93 nM.
In the case of CN1C(=O)C(c2ccc(OS(=O)(=O)C(F)(F)F)cc2)(c2ccc(F)c(-c3cncc(F)c3)c2)N=C1N (stereo not shown) [Example 145, 4-{2-amino-4-[4-fluoro-3-(5-fluoropyridin-3-yl)phenyl]-1-methyl-5-oxo-4,5-dihydro-1H-imidazol-4-yl}phenyl trifluoromethanesulfonate 0.5 acetate], the IC50 is reported as 150 nM.
CN1C(=O)C(c2cccc(OS(=O)(=O)c3ccccn3)c2)(c2ccc(F)c(-c3cncnc3)c2)N=C1N (stereo not shown) [Example 237, 3-[2-Amino-4-(4-fluoro-3-pyrimidin-5-ylphenyl)-1-methyl-5-oxo-4,5-dihydro-1H-imidazol-4-yl]phenyl pyridine-2-sulfonate] gave an IC50 of 124 nM.
CN1C(=O)C(c2cccc(OS(C)(=O)=O)c2)(c2cccc(C3=CCCC3)c2)N=C1N (stereo not shown) [Example 195, 3-[2-Amino-4-(3-cyclopent-1-en-1-yl-phenyl)-1-methyl-5-oxo-4,5-dihydro-1H-imidazol-4-yl]phenyl methanesulfonate hydrochloride] showed an IC50 of 646 nM.
With CN1C(=O)C(c2ccc(OS(=O)(=O)c3ccccc3)cc2)(c2ccc(F)c(-c3cncnc3)c2)N=C1N (stereo not shown) [Example 185, 4-[2-Amino-4-(4-fluoro-3-pyrimidin-5-ylphenyl)-1-methyl-5-oxo-4,5-dihydro-1H-imidazol-4-yl]phenyl benzenesulfonate hydrochloride] the IC50 was 19 nM.
With Cc1cc(C2(c3ccc(F)c(-c4cc(Cl)cc(OS(C)(=O)=O)c4)c3)N=C(N)N(C)C2=O)ccn1 (stereo not shown) [Example 307, 5′-(2-Amino-1-methyl-4-(2-methylpyridin-4-yl)-5-oxo-4,5-dihydro-1H-imidazol-4-yl)-5-chloro-2′-fluorobiphenyl-3-yl methanesulfonate hydrochloride] the IC50 was 104 nM.
CN1C(=O)C(c2ccc(OS(=O)(=O)C(F)(F)F)cc2)(c2ccc(F)c(-c3cc(Cl)ccn3)c2)N=C1N (stereo not shown) [Example 149, 4-{2-Amino-4-[3-(4-chloropyridin-2-yl)-4-fluorophenyl]-1-methyl-5-oxo-4,5-dihydro-1H-imidazol-4-yl}phenyl trifluoromethanesulfonate 0.75 acetate] was tested, and the IC50 was 163 nM.
Compound CN1C(=O)C(c2cccc(OS(=O)(=O)c3c(F)cccc3F)c2)(c2ccc(F)c(Br)c2)N=C1N (stereo not shown) [Example 225, 3-[2-Amino-4-(3-bromo-4-fluorophenyl)-1-methyl-5-oxo-4,5-dihydro-1H-imidazol-4-yl]phenyl 2,6-difluorobenzenesulfonate] has an IC50 of 633 nM.
